Consider 11 compounds from paper PMC9571302, “Evaluation of Major Constituents of Medicinally Important Plants for Anti-Inflammatory, Antidiabetic and AGEs Inhibiting Properties: In Vitro and Simulatory Evidence” (Molecules, 2022).

What is called IC50 is the concentration needed to halve the response being measured. The inhibition is the drop in the measured response relative to a control, in per cent.

Read-outs that look alike come from different tables or passages of the source.

The target of series [1] is T1, bovine serum albumin (BSA) glycation by glucose (Bos taurus, UniProt P02769).
T1 construct: purchased Merck (Dorset, UK) and Oxoid (Hampshire, UK)
T1 sequence (P02769 25-607): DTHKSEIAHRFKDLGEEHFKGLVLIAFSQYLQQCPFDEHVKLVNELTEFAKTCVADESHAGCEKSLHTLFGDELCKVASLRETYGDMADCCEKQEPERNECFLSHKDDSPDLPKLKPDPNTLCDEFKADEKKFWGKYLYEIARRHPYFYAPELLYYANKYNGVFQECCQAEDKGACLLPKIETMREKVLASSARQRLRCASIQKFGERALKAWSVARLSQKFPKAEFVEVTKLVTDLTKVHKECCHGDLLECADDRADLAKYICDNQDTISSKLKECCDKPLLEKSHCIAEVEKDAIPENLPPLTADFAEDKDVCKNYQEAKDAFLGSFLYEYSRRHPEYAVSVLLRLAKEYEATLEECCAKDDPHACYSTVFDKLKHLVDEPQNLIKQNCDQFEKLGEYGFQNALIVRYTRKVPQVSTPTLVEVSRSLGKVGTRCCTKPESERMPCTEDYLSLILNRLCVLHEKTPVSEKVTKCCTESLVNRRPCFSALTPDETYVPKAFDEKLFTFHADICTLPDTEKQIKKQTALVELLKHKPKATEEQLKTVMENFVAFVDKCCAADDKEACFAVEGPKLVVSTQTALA
As to the kind of experiment: AGEs assay, non-oxidative (BSA-glucose assay). The class given is biochemical. The protocol:
4.5.2. AGEs Assay (BSA-Glucose Assay)
The AGEs assay was accomplished by using a standard protocol. The protein source (bovine serum albumin, BSA) (10 mg/mL; 135 µL) was mixed with D-glucose solution (500 mM, 135 µL in phosphate buffer; 50 mM, pH 7.4), NaN3 (sodium azide; 0.02%) and test samples (various concentrations). The reaction mixtures were kept at 60 °C for 1 week to facilitate glycation. Finally, trichloroacetic acid (10 µL, 100%) was added to it to stop the reaction and precipitate the unbound material. […] Aminoguanidine was used as positive control. The control samples used for the experiment were prepared using the same protocol without the test sample.
The AGEs inhibition was calculated as % inhibition = {1 − [Fluo(BSA + glucose + test substance) − Fluo (BSA + test substance)]/[Fluo (BSA + glucose) − Fluo(BSA)]} × 100 where Fluo is the fluorescence intensity. The IC50 was calculated using MS Excel.

For series [2], the target named is T2, bovine serum albumin (BSA) glycation by methylglyoxal (Bos taurus, UniProt P02769).
T2 construct: purchased Merck (Dorset, UK) and Oxoid (Hampshire, UK)
T2 sequence (P02769 25-607): as above
As to the kind of experiment: AGEs assay, oxidative (BSA-MGO assay). It is filed as biochemical. How it is done:
The test samples were added to this reaction mixture and stored at 37 °C for a week. […] The control samples used for the experiment were prepared using the same protocol without a test sample.
The AGEs inhibition was determined as % inhibition = {1 − [(Fluo (BSA + MGO + test substance) − Fluo (BSA + test substance)]/[(Fluo (BSA + MGO) − Fluo (BSA)]} × 100 where Fluo is the fluorescence intensity. The IC50 was calculated using MS Excel.

The next series relates to α-glucosidase. Put plainly: α-Glucosidase inhibition assay. It is filed as biochemical, Saccharomyces cerevisiae. The protocol:
4.5.1. α-Glucosidase Inhibition Assay
The α-glucosidase inhibition experiment was accomplished by using a modified method. Initially, the enzyme solution (from Saccharomyces cerevisiae) (0.2 units/mL dissolved in 0.1 M phosphate buffer; pH 6.8) was mixed with the test sample (1 to 0.039 mg/mL) and incubated in an oven (37 °C for 10 min). After incubation, the substrate (p-nitrophenyl-α-D-glucopyranoside; 0.29 mM) was added to the enzyme and test sample solution and incubated for another 30 min (37 °C).
The percentage of inhibition was determined using the following formula: % Inhibition = [1 − absorbance of test sample/absorbance of control] × 100

Another series concerns the target T3, 15-LOX (lipoxygenase) (Glycine max, UniProt P08170).
T3 construct: purchased Merck (Dorset, UK) and Oxoid (Hampshire, UK)
T3 sequence (P08170 1-839): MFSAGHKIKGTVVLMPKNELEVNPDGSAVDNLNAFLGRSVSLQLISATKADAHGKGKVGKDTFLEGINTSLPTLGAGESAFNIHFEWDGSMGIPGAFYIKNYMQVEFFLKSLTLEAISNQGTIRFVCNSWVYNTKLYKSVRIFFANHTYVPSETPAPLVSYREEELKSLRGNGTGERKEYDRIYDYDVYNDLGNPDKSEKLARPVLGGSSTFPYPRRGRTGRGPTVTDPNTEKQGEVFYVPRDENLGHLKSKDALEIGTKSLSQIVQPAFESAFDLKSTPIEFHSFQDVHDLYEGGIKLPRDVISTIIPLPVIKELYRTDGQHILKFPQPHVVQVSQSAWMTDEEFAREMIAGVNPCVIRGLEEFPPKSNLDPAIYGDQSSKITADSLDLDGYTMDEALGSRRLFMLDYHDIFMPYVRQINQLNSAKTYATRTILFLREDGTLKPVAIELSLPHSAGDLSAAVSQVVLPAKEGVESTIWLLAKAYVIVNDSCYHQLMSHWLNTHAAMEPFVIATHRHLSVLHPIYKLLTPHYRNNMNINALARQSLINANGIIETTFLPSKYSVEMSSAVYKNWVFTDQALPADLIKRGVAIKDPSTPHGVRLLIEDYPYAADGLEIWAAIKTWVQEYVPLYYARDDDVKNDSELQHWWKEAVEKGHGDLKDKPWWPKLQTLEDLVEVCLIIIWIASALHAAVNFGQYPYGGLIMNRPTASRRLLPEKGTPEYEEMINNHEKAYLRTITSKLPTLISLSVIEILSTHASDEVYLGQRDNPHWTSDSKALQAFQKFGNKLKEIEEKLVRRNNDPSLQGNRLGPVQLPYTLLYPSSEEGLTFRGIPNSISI
As to the kind of experiment: 15-Lipoxygenase assay. It is filed as biochemical.

Series [3] deals with T4, BSA cross-link formation (BSA-MGO) (Bos taurus, UniProt P02769).
T4 construct: purchased Merck (Dorset, UK) and Oxoid (Hampshire, UK)
T4 sequence (P02769 25-607): as the sequence (P02769 25-607) above
Put plainly: Protein cross-linking assay by SDS-PAGE, BSA-MGO. The settings on record: SDS-PAGE integrated density. The class given is biochemical, bovine. The protocol: (§1) 4.5.4. Protein Cross-Linking Assay
(§2) Protein cross-linked by AGEs were observed by SDS-PAGE (sodium dodecyl sulphate-polyacrylamide gel electrophoresis). In this experiment, gels (10%) were made and stained with dye (0.25% Coomassie blue). The protein samples (6 µL) were diluted with Tris–HCl buffer (3.75 mL, 0.05 M; pH 6.8) also comprising sodium dodecyl sulphate (150 µL, 10% w/v), 2-mercaptoethanol 1% (v/v) and glycerin 20% v/v), followed by boiling for 5 min. The ladder (12 μL) was loaded into the well on gel preceded by the loading of bromophenol blue (2 μL). After loading, the electrophoresis was accomplished by using the Mini-Protean® Tetra Cell apparatus (Bio-Rad, UK). Afterwards, the gels were stained in a solution containing Coomassie blue [0.25% (w/v)], methanol [50% (v/v)] and acetic acid [10% (v/v)].
(§3) 4.5.5. SDS-PAGE Gels Image Analysis
(§4) The developed gel was stained with Coomassie blue and images were obtained using GelDoc. Finally, the Image J tool was used for the determination of integrated density (IntDen). The integrated density was employed further for the determination of percentage inhibition. The integrated density (ID) was determined as follows:Integrated density (ID) = N × (mean − background) where N is the number of pixels in the selection and the background is the modal grey value (most common pixel value) after smoothing the histogram.

Series [4] addresses T5, BSA cross-link formation (BSA-glucose) (Bos taurus, UniProt P02769).
T5 construct: purchased Merck (Dorset, UK) and Oxoid (Hampshire, UK)
Put plainly: Protein cross-linking assay by SDS-PAGE, BSA-glucose. It is filed as biochemical, bovine. Conditions: SDS-PAGE integrated density. The protocol:
as §1, §2, §3, §4

The mark [5] stands for this setting: read-out: 15-LOX Assay (% Inhibition).
Setting [6] is: non-oxidative mode, Table 6, read-out: Protein Glycation BSA-Glucose (IC50) (converted).
[7] abbreviates: oxidative mode, Table 6, read-out: Protein Glycation BSA-MGO (IC50) (converted).

T5 sequence (P02769 25-607): as the sequence (P02769 25-607) above
Description for 15-LOX (lipoxygenase): The anti-inflammatory activity of test samples was evaluated using a standard protocol [65]. To the enzyme solution (200 units/mL; 487.5 µL), different concentrations of test sample (12.5 µL (2–0.062 mM) in DMSO were added and incubated for 5 min at 37 °C. The absorbance was recorded immediately after the addition of substrate (500 µL of substrate (250 mM linoleic acid in 0.2 M borate buffer, pH 9) and after every min up to 5 min at 234 nm by using a UV spectrophotometer (UV-1601, SHEMADZU, Kyoto, Japan).
The percentage inhibition of enzyme activity was calculated as follows:% inhibition = ([ΔA1/Δt] − [ΔA2/Δt]/(ΔA1/Δt) × 100 where ΔA1/Δt and ΔA2/Δt are the increase rate in absorbance at 234 nm for a sample without test substance and with test substance, respectively.

Consider `C=CCc1ccc(O)c(OC)c1` [Eugenol, eugenol], for which 244 µM corresponded to half-maximal inhibition in series [1] (IC50). In series [2], the “Protein Glycation BSA-MGO (IC50)” value is listed as “Inactive”. Besides, the “α-Glucosidase (IC50)” value in the series with α-glucosidase is given as “Inactive”. Moreover, the inhibition at 83 µg/mL at 15-LOX (lipoxygenase) (setting [5]) was found to be 51 ± 0.2%.
As to `S=C=NCCc1ccccc1` [2-Phenylethylisothiocyanate, 2-phenylethylisothiocyanate], the “Protein Glycation BSA-Glucose (IC50)” value in series [1] is listed as “Inactive”. For the same compound, the “Protein Glycation BSA-MGO (IC50)” value in series [2] is “Inactive”. In addition, at α-glucosidase, the “α-Glucosidase (IC50)” value is 28.9 ± 0.1 µg/mL. Also, the “Inhibition of protein cross-link formation” value in series [3] is listed as 48%. At 15-LOX (lipoxygenase) (25 µg/mL), the “15-LOX Assay (% Inhibition)” value is “Inactive ^5”.
`O=C1C=CC(=O)c2c(O)cccc21` [Juglone, juglone]: the IC50 in series [1] (setting [6]) is 345 µM; in series [2] (setting [7]), 632 µM. In addition, the “α-Glucosidase (IC50)” value at α-glucosidase was determined as 5.7 ± 0.1 µg/mL. Also, in series [3], the “Inhibition of protein cross-link formation” value came out at 39%. The inhibition at 2.5 µg/mL at 15-LOX (lipoxygenase) (2.5 µg/mL) came to 57 ± 0.1%.
At 15-LOX (lipoxygenase) (25 µg/mL), `O=c1c(O)c(-c2ccc(O)c(O)c2)oc2cc(O)cc(O)c12` [Quercetin, quercetin] yielded an inhibition at 25 µg/mL of 62 ± 0.1%. For the same compound, the “Inhibition of protein cross-link formation” value in series [4] is reported as 53%.
Consider `C/C1=C\CC/C(C)=C/CC(C)(C)/C=C/C1` [α-Humulene, α-humulene], for which the “Protein Glycation BSA-Glucose (IC50)” value in series [1] (non-oxidative mode, Table 6) was “Inactive”. Further, the “Protein Glycation BSA-MGO (IC50)” value in series [2] (oxidative mode, Table 6) was “Inactive”. The “α-Glucosidase (IC50)” value with α-glucosidase was “Inactive”. Also, in series [3], the “Inhibition of protein cross-link formation” value came out at 40%. Moreover, the “15-LOX Assay (% Inhibition)” value on 15-LOX (lipoxygenase) (13.0 µg/mL) is 60.0 ± 0.1% ^3.
As to `C[C@@H]1O[C@@H](OC[C@H]2O[C@@H](Oc3c(-c4ccc(O)c(O)c4)oc4cc(O)cc(O)c4c3=O)[C@H](O)[C@@H](O)[C@@H]2O)[C@H](O)[C@H](O)[C@H]1O` [Rutin, reference compound], the IC50 is 49.1 µM in series [1] (setting [6]) and 1670 µM in series [2] (setting [7]). Besides, the inhibition at 12.5 µg/mL at 15-LOX (lipoxygenase) (12.5 µg/mL) was determined as 62 ± 0.1%.
As for `C=C1CC[C@H]2O[C@]2(C)CC[C@@H]2[C@@H]1CC2(C)C` [Caryophyllene oxide, caryophyllene-oxide], in series [1] (non-oxidative mode, Table 6), the “Protein Glycation BSA-Glucose (IC50)” value is recorded as “Inactive”. Moreover, in series [2] (oxidative mode, Table 6), the “Protein Glycation BSA-MGO (IC50)” value is listed as “Inactive”. Besides, in the series on α-glucosidase, the “α-Glucosidase (IC50)” value was “Inactive”. For the same compound, in series [3], the “Inhibition of protein cross-link formation” value amounted to 35%. Moreover, the “15-LOX Assay (% Inhibition)” value on 15-LOX (lipoxygenase) (12.5 µg/mL) was 50.0± 0.1% ^2.
For `C[C@@H]1O[C@@H](Oc2c(-c3ccc(O)c(O)c3)oc3cc(O)cc(O)c3c2=O)[C@H](O)[C@H](O)[C@H]1O` [Quercitrin, quercitrin], the concentration for half-maximal inhibition (IC50) in series [1] was 201 µM; in series [2] it was 758 µM. Also, the “α-Glucosidase (IC50)” value on α-glucosidase was 7.6 ± 0.1 µg/mL. The inhibition at 16.2 µg/mL on 15-LOX (lipoxygenase) (setting [5]) amounted to 65 ± 0.1%. The “Inhibition of protein cross-link formation” value in series [4] was 55%.
On to `O=C(O)c1cc(O)c(O)c(O)c1` [gallic acid], for which the “α-Glucosidase (IC50)” value on α-glucosidase was 8.2 µg/mL.
In series [1], `O=c1cc(-c2ccc(O)cc2)oc2cc(O)cc(O)c12` [Apigenin, apigenin] showed an IC50 of 1670 µM. The “Protein Glycation BSA-MGO (IC50)” value in series [2] is reported as “Inactive”. Besides, the “α-Glucosidase (IC50)” value at α-glucosidase stood at 24.4 ± 0.1 µg/mL. This compound returned an inhibition at 14.1 µg/mL at 15-LOX (lipoxygenase) (14.1 µg/mL) of 53 ± 0.1%. The “Inhibition of protein cross-link formation” value in series [4] is 51%.
With `C=C1CC/C=C(\C)CC[C@@H]2[C@@H]1CC2(C)C` [Caryophyllene, trans-caryophyllene], the “Protein Glycation BSA-Glucose (IC50)” value in series [1] is given as “Inactive”. For the same compound, in series [2], the “Protein Glycation BSA-MGO (IC50)” value is on record as “Inactive”. For the same compound, the “α-Glucosidase (IC50)” value with α-glucosidase is given as “Inactive”. Besides, the “15-LOX Assay (% Inhibition)” value at 15-LOX (lipoxygenase) (25 µg/mL) is reported as “Inactive ^6”.
